Measurements as given in patent US7192607B2, “Formulations for the prevention or the treatment of diseases affecting mucosae or skin, or for pregnancy prevention, and an applicator for the delivery of topical formulations into mucosal cavities” (Infectio Recherche Inc, priority 2002, dated 2007).
“And” between values parts separate entries of the source, which are not always exact repeats. Equal values may be shown once. Read-outs that look alike come from different tables or passages of the source.

What was measured:
[1] = test system: glycoprotein D gene of HSV-1 (strain F); test: Quantification of HSV glycoprotein D gene in Vero cells infected with pretreated virus (hybridization, densitometry); type: cell-based, Herpes simplex virus type-1; details: 48 h infection
Procedure: The quantification of the glycoprotein D gene of HSV-1 (strain F) pretreated with SLS was also evaluated in Vero cells in order to determine the presence of viral DNA in the infected cells. In brief, HSV-1 (strain F) was pretreated with varying SLS concentrations (12.5, 25, 50, 75 and 100 μM) in EMEM +2% FBS for 1 h at 37° C. Vero cells (80–90% confluent) were infected with the virus (100 PFU/ml in 20 ml) for 48 h at 37° C. in a 5% CO2 atmosphere. The culture medium was removed and cell sheet was washed twice with 1× HBSS. Cells were scrapped off from the dishes and resuspended in EMEM +2% FBS. Total DNA was extracted using a standard phenol/chloroform procedure. Quantitation of total DNA was achieved using the Burton procedure. The probe used for this study corresponds to a part of glycoprotein D of HSV-2 (strain 333), generated by PCR using the following primers: • P1 (5′-[…]-3′) and • P2 (5′-[…]-3′) and was [^32P]-labeled by random priming. Hybridization was performed at 65° C. in 0.25 M Na2HPO4 (pH 6.8 with orthophosphoric acid) and 7% SDS. Washes were done in 40 mM Na2HPO4 (pH 6.8 with orthophosphoric acid) and 1% SDS for 20 min at 65° C. followed by 20 min at 25° C.
Following a 48 h incubation, cells were collected and total DNA was extracted. […] Quantitative measurements of HSV-1 DNA levels obtained by scanning densitometry of the autoradiogram were similar (Panel B).

[2] = test system: HSV-2 (strain 333); test: Murine intravaginal infection model, gel formulations applied prior to infection; type: in vivo, Balb/c mice; details: 2.5% SLS alone intravaginally 5 min prior to infection
Procedure: The efficacy of gel formulations to prevent the genital transmission of HSV-2 has been evaluated in a murine intravaginal infection model. In brief, female Balb/c mice aged 4 weeks were used for this study. To increase susceptibility of mice to herpes, 2.5 mg of progesterone (Depo-Provera) was administered subcutaneously to each mouse 7 days prior to and one day prior to inoculation with HSV-2. Anesthetized mice were inoculated with 5 μl of 2.4×10^7 pfu/ml of HSV-2 (strain 333) after swabbing the vagina with a calcium alginate thin tipped swab. To determine the efficacy of the gel formulations to block herpes infection, 15 μl of the gel was delivered with a pipette tip into the vagina a few minutes prior to the inoculation. The pipette tip was moved in and out four times to simulate stirring action of sexual intercourse while being cautious not to cause any bleeding.

[3] = test system: HSV-1 (strain F); test: Infectivity of HSV-1 (strain F) to Vero cells after treatment with SLS or DS (plaque forming units); type: cell-based, Herpes simplex virus type-1; details: for IC50: Human alphaherpesvirus 1, Vero, FIG. 1, read-out: concentration giving a loss of 50% of the viral infectivity
Procedure: The effect of pretreating different strains of herpes viruses with SLS or DS on their viral infectivities to susceptible cells has been evaluated. In brief, cells were seeded in 24 well-plates (Costar, Montreal, QC, Canada). Prior to infection, the virus was either suspended in culture medium or phosphate buffered saline (PBS), or incubated with different concentrations of SLS in PBS for 1 h at 37° C. At confluency, cells were incubated with viral suspensions by centrifuging the plates (750× g for 45 min at 20° C.) to allow virus adsorption. Virus was removed and cell sheets were then overlaid with 0.5 ml of 0.6% agarose Seaplaque (Marine Colloids, Rockland, Md.) prepared in appropriate culture medium. The plates were incubated for 2 days at 37° C. Cells were then fixed with 10% formaldehyde in PBS for 20 min, washed with deionized water and stained with 0.05% methylene blue. Viral infectivity was evaluated via the determination of Plaque Forming Units (PFU).
HSV-1 (strain F) infectivity was reduced to 21% when viral particles were pretreated with 25 μM SLS. The infectivities of all HSV-2 strains were between 50 to 70% following preincubation with 25 μM SLS. A complete loss of the infectivity of all strains tested were obtained following pretreatment of the viruses with 50 μM SLS.
When SLS was immediately added to Vero cells following their infection, the loss of viral infectivity was less dramatic compared to that obtained for virus pretreated for 1 h at 37° C. with the same SLS concentrations. […] Similarly, pretreatment of the HSV-2 (strain 333) with SLS also influenced the infectivity of this strain (data not shown). On the other hand, DS reduces the infectivity of the virus independent of whether the virus was pretreated with DS.

[4] = test system: HSV-1 (strain F); test: as above; type: cell-based, Herpes simplex virus type-1; details: Vero cells preincubated 1 h at 37° C. with 6.25 to 100 μM SLS prior to infection; data not shown
[5] = test system: rabbit, bovine and human papillomaviruses; details: brief treatment with low concentrations; Howett et al., 1999; cited from earlier work
[6] = test system: HSV-1 (strain F); test: Efficacy of SLS or DS added in overlay after infection against HSV-1 (strain F) in Vero cells (PFU); type: cell-based, Herpes simplex virus type-1; details: cells infected 2 h, compound in overlay for 2 days, FIG. 2
Procedure: In brief, cells were infected with the virus for 2 h at 37° C. Afterwards, supernatant was removed and cells were overlaid with 0.5 ml of EMEM +2% FBS containing 0.6% agarose Seaplaque and SLS or DS at the desired concentration. Plates were then incubated for 2 days at 37° C. in a 5% CO2 atmosphere. Cells were fixed with 10% formaldehyde in PBS for 20 min, washed with deionized water and stained with 0.05% methylene blue. Viral infectivity was evaluated following the determination of PFU.

[7] = test system: HSV-2; details: Howett et al., 1999; cited from earlier work

SMILES: CCCCCCCCCCCCOS(=O)(=O)[O-].[Na+] [SLS, Sodium lauryl sulfate]
- HSV-1 DNA levels (glycoprotein D gene) ([1]; virus pretreated with 75 μM SLS for 1 h at 37° C.): 65.1 % of control values
- HSV-1 DNA levels (glycoprotein D gene) ([1]; virus pretreated with 100 μM SLS for 1 h at 37° C.): 34.9 % of control values
- expression of the glycoprotein D gene compared to control ([1]; virus pretreated with 12.5, 25 and 50 μM SLS for 1 h at 37° C.): No major modification
- mice that survived the infection [2]: all
- signs of illness ([2]; up to 16 days post-infection): did not demonstrate any sign of illness
- inhibition of viral infectivity ([3]; 100 μM SLS without pretreatment): not complete
- IC50 ([3]; virus not pretreated (added without pretreatment)): 75 µM
- IC50 ([3]; virus pretreated for 1 h at 37° C.): 20 µM
- inhibition of viral infectivity ([3]; preincubation of virus with 50 μM SLS): complete inhibition
- PFU (% of control) for HSV-1 (F) ([3]; virus pretreated with 6.25 μM SLS for 1 hour at 37° C.): 101.1 ± 7.0 % of control
- PFU (% of control) for HSV-1 (F) ([3]; virus pretreated with 12.5 μM SLS for 1 hour at 37° C.): 79.2 ± 36.4 % of control
- PFU (% of control) for HSV-1 (F) ([3]; virus pretreated with 25 μM SLS for 1 hour at 37° C., sulfate): 21 % of control and 21.2 ± 18.0 % of control
- PFU (% of control) for HSV-1 (F) ([3]; virus pretreated with 50 μM SLS for 1 hour at 37° C.): 0 % of control
- infectivity of HSV-1 (strain F) after preincubation of Vero cells (not virus) with SLS [4]: did not result in a loss of infectivity
- effect against rabbit, bovine and human papillomaviruses (non-enveloped viruses) [5]: effective
- concentration with complete efficacy against viral replication [6]: 100 µM
- inactivation of HSV-2 [7]: potent inactivator
